In ChEMBL document CHEMBL1201862, “PubChem BioAssay data set” (2004):
Activity calls are given as the source filed them.

Legend:
[1] = Counterscreen for IDE inhibitors: Luminescence-based cell-based high throughput dose response assay to identify compounds that are cytotoxic to HEK cells. [Related pubchem assays: 434962 (Primary screen (IDE inhibitors in singlicate)), 449730 (Counterscreen (Cytotoxicity in triplicate)), 435028 (Confirmation (IDE inhibitors in triplicate)) …; format: functional; conditions: HEK293
Insulin-degrading enzyme = biological target: T1, Insulin-degrading enzyme (Homo sapiens, UniProt P14735); assay: Dose Response: Fluorescence polarization-based cell-based high throughput dose response assay for inhibitors of insulin-degrading enzyme (IDE). [Related pubchem assays: 434962 (Primary screen (IDE inhibitors in singlicate)), 449730 (Counterscreen (Cytotoxicity in triplicate)), 435028 (Confirmation (IDE inhibitors in triplicate)), 434984 (Summary …; format: functional
T1 sequence (P14735 whole entry): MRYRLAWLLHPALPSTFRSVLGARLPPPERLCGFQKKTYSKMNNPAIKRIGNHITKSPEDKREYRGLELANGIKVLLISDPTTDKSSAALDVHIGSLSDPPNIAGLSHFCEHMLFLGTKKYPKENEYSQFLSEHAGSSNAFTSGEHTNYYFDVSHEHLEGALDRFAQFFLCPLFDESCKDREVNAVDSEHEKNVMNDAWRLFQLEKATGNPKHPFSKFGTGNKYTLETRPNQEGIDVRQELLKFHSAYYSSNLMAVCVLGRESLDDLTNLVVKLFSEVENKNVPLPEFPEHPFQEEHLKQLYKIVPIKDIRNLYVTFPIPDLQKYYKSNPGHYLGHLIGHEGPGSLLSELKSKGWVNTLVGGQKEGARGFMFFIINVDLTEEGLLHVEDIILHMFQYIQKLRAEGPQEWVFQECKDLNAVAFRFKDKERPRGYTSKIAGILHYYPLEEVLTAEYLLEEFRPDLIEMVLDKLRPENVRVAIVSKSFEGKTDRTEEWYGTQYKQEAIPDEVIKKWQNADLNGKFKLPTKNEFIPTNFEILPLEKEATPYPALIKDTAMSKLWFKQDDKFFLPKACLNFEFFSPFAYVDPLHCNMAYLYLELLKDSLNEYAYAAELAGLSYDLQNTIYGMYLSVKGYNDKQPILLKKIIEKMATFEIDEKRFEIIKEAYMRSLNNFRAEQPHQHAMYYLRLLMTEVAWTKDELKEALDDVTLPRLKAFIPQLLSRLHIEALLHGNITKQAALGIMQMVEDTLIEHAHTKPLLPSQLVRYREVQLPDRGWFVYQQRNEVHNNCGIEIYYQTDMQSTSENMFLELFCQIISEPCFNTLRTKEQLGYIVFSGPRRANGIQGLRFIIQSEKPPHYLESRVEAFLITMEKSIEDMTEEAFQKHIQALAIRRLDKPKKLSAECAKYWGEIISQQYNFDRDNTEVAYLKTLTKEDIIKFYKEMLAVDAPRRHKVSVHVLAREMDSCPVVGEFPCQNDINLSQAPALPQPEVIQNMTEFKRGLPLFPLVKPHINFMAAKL

[2] = biological target: T2, Short transient receptor potential channel 4 (Mus musculus, UniProt Q9QUQ5); assay: mouse TRPC4 channel inhibitors, dose response, cell-based, HEK293 TRPC4/mu-opioid, Fluo-4 calcium (AID 434942); format: functional;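 further: potency of inhibitors blocking the TRPC4 calcium response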
T2 sequence (Q9QUQ5 whole entry): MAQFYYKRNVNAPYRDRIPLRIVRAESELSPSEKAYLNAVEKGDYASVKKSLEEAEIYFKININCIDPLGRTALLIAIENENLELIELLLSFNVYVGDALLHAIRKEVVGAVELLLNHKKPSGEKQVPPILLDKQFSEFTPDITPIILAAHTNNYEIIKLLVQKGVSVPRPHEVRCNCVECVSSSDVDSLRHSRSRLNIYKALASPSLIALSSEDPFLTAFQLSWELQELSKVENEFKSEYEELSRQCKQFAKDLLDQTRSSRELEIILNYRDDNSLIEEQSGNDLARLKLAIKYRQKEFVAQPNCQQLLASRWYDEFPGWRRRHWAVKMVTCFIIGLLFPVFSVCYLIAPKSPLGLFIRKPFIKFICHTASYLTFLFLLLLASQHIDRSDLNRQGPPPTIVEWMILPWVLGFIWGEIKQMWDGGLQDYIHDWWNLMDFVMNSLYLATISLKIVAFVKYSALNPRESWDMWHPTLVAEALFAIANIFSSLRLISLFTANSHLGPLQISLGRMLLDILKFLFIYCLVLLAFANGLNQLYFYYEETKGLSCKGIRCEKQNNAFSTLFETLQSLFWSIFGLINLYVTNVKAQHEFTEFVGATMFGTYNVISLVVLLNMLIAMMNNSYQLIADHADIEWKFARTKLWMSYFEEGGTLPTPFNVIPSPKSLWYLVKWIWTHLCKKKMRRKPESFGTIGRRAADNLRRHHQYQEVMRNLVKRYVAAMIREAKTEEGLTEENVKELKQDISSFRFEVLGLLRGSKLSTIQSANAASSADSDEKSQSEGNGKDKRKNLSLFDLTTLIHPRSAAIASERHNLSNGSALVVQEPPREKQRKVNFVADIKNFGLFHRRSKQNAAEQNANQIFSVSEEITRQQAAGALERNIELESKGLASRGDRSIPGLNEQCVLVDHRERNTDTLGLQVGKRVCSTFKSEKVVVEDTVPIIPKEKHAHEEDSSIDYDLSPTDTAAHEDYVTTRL

[3] = biological target: Nucleotide-binding oligomerization domain-containing protein 2 (Homo sapiens, UniProt Q9HC29); assay: NOD2 signaling inhibitors, cell-based, luminescence, uHTS, HEK293 (AID 1566); format: functional
HEK293 [4] = assay: cells; format: functional, cell-based; conditions: Homo sapiens
HEK293 [5] = assay: NOD2 signaling inhibitors in MDP-stimulated cells, cell-based, uHTS, luminescence (AID 2001); format: functional; conditions: Homo sapiens
HEK293 [6] = assay: cells; format: functional, cell-based; conditions: Homo sapiens; remark: listed apart in the source
HEK293 [7] = assay: NOD1 signaling inhibitors, primary screen, cell-based, luminescence, uHTS (AID 1578); format: functional; conditions: Homo sapiens
HEK293 [8] = assay: cells; format: functional, cell-based; conditions: Homo sapiens; remark: listed apart in the source
Cytochrome P450 3A4 = Cytochrome P450 3A4 (Homo sapiens, UniProt P08684); conditions: Potency;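 further: confirmatory qHTS run detecting inhibitors and substrates of CYP3A4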
[9] = biological target: T3, Rac GTPase-activating protein 1 (Homo sapiens, UniProt Q9H0H5); assay: MgcRacGAP GTPase-activating activity inhibitors, confirmation, biochemical, ADP Hunter fluorescence, primary and confirmatory (AID 624330); format: functional
T3 sequence (Q9H0H5 whole entry): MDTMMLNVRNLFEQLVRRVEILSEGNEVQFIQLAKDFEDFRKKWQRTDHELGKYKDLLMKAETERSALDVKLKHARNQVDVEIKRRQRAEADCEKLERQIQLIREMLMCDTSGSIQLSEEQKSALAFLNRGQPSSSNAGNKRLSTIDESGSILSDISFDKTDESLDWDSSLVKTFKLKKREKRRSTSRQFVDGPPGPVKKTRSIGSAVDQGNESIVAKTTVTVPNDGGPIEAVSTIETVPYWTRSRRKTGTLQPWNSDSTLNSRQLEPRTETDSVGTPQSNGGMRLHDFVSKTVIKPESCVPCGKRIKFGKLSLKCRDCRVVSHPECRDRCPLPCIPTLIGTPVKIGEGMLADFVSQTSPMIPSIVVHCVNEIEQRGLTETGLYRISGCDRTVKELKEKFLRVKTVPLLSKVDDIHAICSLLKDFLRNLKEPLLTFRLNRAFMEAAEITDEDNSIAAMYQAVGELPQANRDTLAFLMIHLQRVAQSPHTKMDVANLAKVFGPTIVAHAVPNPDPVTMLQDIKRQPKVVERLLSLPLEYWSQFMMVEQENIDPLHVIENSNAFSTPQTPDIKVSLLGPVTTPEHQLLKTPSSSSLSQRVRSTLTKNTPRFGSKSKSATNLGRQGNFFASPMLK

[10] = microbe, parasite or virus in culture; format: functional; conditions: Mycobacterium tuberculosis
[11] = biological target: FAD-linked sulfhydryl oxidase ALR (Homo sapiens, UniProt P55789); assay: inhibitors of human ALR sulfhydryl oxidase, dose response, biochemical, H2O2 detection, luminescence, cherry-pick (AID 493248)
Chain of FAD-linked sulfhydryl oxidase ALR (P55789 whole entry): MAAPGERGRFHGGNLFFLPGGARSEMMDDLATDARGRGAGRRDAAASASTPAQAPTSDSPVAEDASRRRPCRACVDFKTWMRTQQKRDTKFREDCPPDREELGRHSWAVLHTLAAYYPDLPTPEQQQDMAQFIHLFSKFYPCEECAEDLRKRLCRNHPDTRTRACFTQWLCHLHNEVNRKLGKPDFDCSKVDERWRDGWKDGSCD

Chain of Cytochrome P450 3A4 (P08684 whole entry): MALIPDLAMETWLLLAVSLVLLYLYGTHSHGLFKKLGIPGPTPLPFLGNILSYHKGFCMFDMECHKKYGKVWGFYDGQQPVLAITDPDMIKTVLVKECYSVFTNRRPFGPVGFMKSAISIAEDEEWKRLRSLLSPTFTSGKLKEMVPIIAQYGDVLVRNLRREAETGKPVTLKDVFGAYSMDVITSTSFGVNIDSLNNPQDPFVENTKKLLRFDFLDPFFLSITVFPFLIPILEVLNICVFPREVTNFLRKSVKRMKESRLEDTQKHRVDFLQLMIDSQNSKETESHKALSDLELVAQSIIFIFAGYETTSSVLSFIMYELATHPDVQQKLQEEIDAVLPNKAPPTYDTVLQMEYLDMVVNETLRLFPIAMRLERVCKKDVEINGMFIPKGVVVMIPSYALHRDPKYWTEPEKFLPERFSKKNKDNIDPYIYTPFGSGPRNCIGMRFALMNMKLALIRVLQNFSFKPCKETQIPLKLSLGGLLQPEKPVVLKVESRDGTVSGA
Chain of Nucleotide-binding oligomerization domain-containing protein 2 (Q9HC29 whole entry, the tested form may be a part): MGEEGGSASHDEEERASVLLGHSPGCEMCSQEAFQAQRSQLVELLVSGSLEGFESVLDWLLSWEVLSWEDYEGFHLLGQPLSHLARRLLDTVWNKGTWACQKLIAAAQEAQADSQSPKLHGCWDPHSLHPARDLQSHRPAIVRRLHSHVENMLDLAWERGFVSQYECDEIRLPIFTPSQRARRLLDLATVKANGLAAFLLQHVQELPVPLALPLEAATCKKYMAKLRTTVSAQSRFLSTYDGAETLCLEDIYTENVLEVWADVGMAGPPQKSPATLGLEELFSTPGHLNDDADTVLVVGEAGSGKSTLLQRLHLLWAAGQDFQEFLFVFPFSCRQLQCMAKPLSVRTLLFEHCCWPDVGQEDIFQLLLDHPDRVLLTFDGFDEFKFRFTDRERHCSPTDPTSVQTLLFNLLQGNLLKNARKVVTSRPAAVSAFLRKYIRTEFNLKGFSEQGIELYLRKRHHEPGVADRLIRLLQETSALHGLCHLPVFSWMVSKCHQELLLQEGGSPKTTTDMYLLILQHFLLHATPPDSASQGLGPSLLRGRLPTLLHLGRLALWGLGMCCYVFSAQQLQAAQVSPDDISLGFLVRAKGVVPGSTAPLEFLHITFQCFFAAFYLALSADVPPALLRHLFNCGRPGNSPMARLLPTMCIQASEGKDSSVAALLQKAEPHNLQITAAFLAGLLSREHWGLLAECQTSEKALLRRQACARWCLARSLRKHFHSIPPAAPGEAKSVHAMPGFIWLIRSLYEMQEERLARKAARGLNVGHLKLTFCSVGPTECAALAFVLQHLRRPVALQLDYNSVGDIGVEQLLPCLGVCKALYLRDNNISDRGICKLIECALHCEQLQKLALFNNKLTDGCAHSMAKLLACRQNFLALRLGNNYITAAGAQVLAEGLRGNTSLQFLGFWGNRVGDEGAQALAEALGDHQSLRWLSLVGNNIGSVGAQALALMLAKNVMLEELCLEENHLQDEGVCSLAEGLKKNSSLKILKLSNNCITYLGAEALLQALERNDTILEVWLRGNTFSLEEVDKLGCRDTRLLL

For CCOC(=O)C1C(=O)NC(SCC(N)=O)=C(C#N)C1c1ccccc1OCC (stereo not drawn), which IC50 [1] is on record?
The IC50 was > 55.7 µM (not active).

What about the IC50 (Insulin-degrading enzyme) of the same molecule?
The IC50 was > 6.21 µM (active).

Which EC50 [2] does the source give for O=C(c1cccc(C(F)(F)F)c1)C1CCCN(Cc2ccccc2O)C1 (stereo not drawn) here?
The EC50 was 2.37 µM (active).

Which results are given for COc1ccc(CNC(=O)c2ccc3ccccc3n2)cc1OC?
EC50 [3]: 11.7 µM (active); IC50 (HEK293 [4]): > 20 µM (inactive); IC50 (HEK293 [5]): > 20 µM (inactive); IC50 (HEK293 [6]): 14.5 µM (active); EC50 (HEK293 [7]): 7.83 µM (active); IC50 (HEK293 [8]): > 20 µM (inactive)

Which EC50 [2] does the source give for Cc1ccccc1CN1CCCC(C(=O)Nc2ccccc2Oc2cccnc2)C1 (stereo not drawn) here?
Its EC50 is 5.31 µM (active).

Which AC50 (Cytochrome P450 3A4) does the source give for COc1ccccc1-c1oc2ccccc2c(=O)c1OC here?
The AC50 was 20 µM (inconclusive).

For Nc1cc([N+](=O)[O-])ccc1Nc1ccc(O)cc1, which IC50 [9] is on record?
Its IC50 is 38.2 µM (active).

What about the CC50 [10] of the same molecule?
The CC50 was > 40 µM (active).

And the AC50 [11]?
The AC50 was 269 nM (active).

With O=C1CN=C(Nc2cccc(C(F)(F)F)c2)N1C1CCCC1 as the molecule, how does the EC50 [2] read?
The EC50 was 6.68 µM (active).

With COc1cc(-c2oc3cc(O)ccc3c(=O)c2O)ccc1O [GERALDOL] as the molecule, how does the AC50 (Cytochrome P450 3A4) read?
Its AC50 is 10 µM (inconclusive).

With CC(C(=O)O)c1ccc(N2Cc3ccccc3C2=O)cc1 (stereo not drawn) [INDOPROFEN] as the molecule, how does the AC50 (Cytochrome P450 3A4) read?
The AC50 was 39.8 µM (inconclusive).

For CNC(=O)N(C)c1nnc(C(C)(C)C)s1 [TEBUTHIURON], which AC50 (Cytochrome P450 3A4) is on record?
Its AC50 is 12.6 µM (inconclusive).
